Data reported in patent US8779002B2, “Methods for treating a variety of diseases and conditions, and compounds useful therefor” (Salk Institute for Biological Studies, priority 2007, dated 2014).
Read-outs that look alike come from different tables or passages of the source.

Key:
[1] = Plasma concentration and brain content after a single oral dose by gavage; assay type: in vivo, mouse; details: for concentration at 0 hr / concentration at 1 hr / concentration at 2 hr: female, mouse, BALB/c mice
Description: The pharmacokinetic properties of a single oral dose of exemplary compounds according to the invention, i.e., Cmpd 11-001 and Cmpd J147, are studied in 10-week old female BALB/c mice. Cmpd 11-001 or J147 are emulsified in 2.5% carboxymethyl cellulose at a concentration of 20 mg/ml and administered by gavage at a dosage of 400 mg/kg body weight or 200 mg/kg body weight, respectively. The mice are then sacrificed at various intervals after administration (0, 1 hr, 2 hr, 4 hr, and 6 hr).
Plasma is obtained from blood (mixed with K3EDTA to prevent coagulation) by centrifugation at 4,300 g for 10 min, extracted twice with ethyl acetate/propanol (9:1, v/v). The extracts are centrifuged at 5,000 g for 10 min to form aqueous/organic layers. The organic layer containing Cmpd 11-001 is centrifuged at 20,000 g for 10 min to sediment particles. The extraction recovery from plasma is approximately 90%. Thirty μl thereof were analyzed by HPLC equipped with a C18 reversed phase column—Cmpd 11-001 is detected at 330 nm. The elution solvent system is 50% acetonitrile, 50% water and 1 g/L trifluoroacetic acid with a flow rate of 1 ml/min.
To study the distribution of compounds according to the invention in brain at various time intervals (0, 1 hr, 2 hr, 4 hr, and 6 hr) after gavage (400 mg/kg or 200 mg/kg as noted above), the mice are anesthetized with cloral hydrate and perfused through the heart with phosphate buffered saline (PBS) to remove blood in the brain. The mice are then decapitated, the brains removed, and quickly frozen and stored at −80° C. before further analysis. To measure the level of invention compound in the brain, weighed brain pieces are homogenized by sonication in 3 volumes of PBS. The homogenates are then extracted and measured by HPLC as described above.

PC12 cells = assay: Glucose starvation assay; assay type: cell-based; parameters: key: + = positive result or enzyme activation; details: Cell Culture
Description: FIG. 1C illustrates the results of a glucose starvation assay. PC12 cells were starved for glucose plus or minus 20 nM J147; cell viability was then determined 48 hr later using the MTT assay (T. Soucek, R. Cumming, R. Dargusch, P. Maher and D. Schubert, Neuron 39 (2003) 43-56).

[2] = test system: Schaffer collateral CA1 pyramidal cell synapses in rat hippocampal slices; assay: LTP induction in hippocampal slices; parameters: key to LTP: + = positive result or enzyme activation
Source text: Hippocampal slices were exposed to J147 during the time indicated by the black bar. The field excitatory postsynaptic potential (fEPSP) slope is expressed as the percentage of the value immediately before the addition of J147.
The effect of J147 is dose-dependent. The hippocampal slices were untreated or exposed to J147 for the time indicated by the black bar, and weak tetanic stimulation was applied at time 0. The fEPSP slope is expressed as the percentage of the value immediately before the application of weak tetanic stimulation. FIG. 3B illustrates the time course of changes in the fEPSP slope.
To compare the data among the groups, the averages of the fEPSP slopes 30-60 min after tetanic stimulation were calculated as an index of LTP magnitude; the results are shown in FIG. 3C. All the data are the mean±SEM […] vs none.

[3] = test system: double transgenic (mutated PS1 and APP) Alzheimer's mouse model; assay: Morris Water Maze in Alzheimer's mouse model; assay type: in vivo; details: in the food for 4 months at 100 ppm
Description: FIG. 7 illustrates that […] improves spatial learning and memory in the Morris Water Maze. A circular water tank four feet in diameter, containing water at 26-27° C., is made opaque with white pigment, and a platform placed in the NW quadrant. Mice were randomly introduced to the tank facing the wall in one of the other quadrants for a trial of 50 s or until they found the platform. Upon reaching the platform, or at the end of the 50 s, the mice were placed on the platform, the mice were left on the platform for 15 s. There were four trials per mouse each day for seven consecutive days. The data are presented as the average time to reach the platform (escape latency) of the 4 daily trials for each group of mice. There are 3 groups of 5 mice each. One is wild type (circles), another is a double transgenic (mutated PS1 and APP) Alzheimer's mouse model (rectangle), and the third is the AD mouse plus J147 that has been in the food for 4 months at 100 ppm (diamond).

Amyloid = Amyloid dissociation; parameters: key: + = positive result or enzyme activation
Rabbit stroke = Rabbit stroke model; parameters: key: + = positive result or enzyme activation; details: in vivo
JNK-3 = JNK-3 (Homo sapiens, UniProt P53779); assay: Protein kinase panel: JNK-3; assay type: biochemical; details: panel of 14 protein kinases
Source text: (§1) A panel of 14 protein kinases was screened against Cmpd CNB-001. […] In HT22 cells and primary cortical neurons, Cmpd CNB-001 blocked p38 and JNK phosphorylation caused by glutamate by about 30%, and inhibited cell death. The phosphorylation of the other tested kinases was not altered.

JNK-1 = JNK-1 (Homo sapiens, UniProt P45983); assay: Protein kinase panel: JNK-1; assay type: biochemical; details: panel of 14 protein kinases
Source text: as §1

JNK-2 = JNK-2 (Homo sapiens, UniProt P45984); assay: Protein kinase panel: JNK-2; assay type: biochemical; details: panel of 14 protein kinases
Source text: as §1

p38 = p38 phosphorylation caused by glutamate; assay type: cell-based; details: HT22 cells and primary cortical neurons
Source text: as §1

JNK = JNK phosphorylation caused by glutamate; assay type: cell-based; details: HT22 cells and primary cortical neurons
Source text: as §1

[4] = brain, 200 mg/kg single oral dose by gavage, read-out: Brain content
[5] = plasma, 200 mg/kg single oral dose by gavage, read-out: Plasma concentration

Sequence of JNK-2 (P45984 whole entry, species assumed): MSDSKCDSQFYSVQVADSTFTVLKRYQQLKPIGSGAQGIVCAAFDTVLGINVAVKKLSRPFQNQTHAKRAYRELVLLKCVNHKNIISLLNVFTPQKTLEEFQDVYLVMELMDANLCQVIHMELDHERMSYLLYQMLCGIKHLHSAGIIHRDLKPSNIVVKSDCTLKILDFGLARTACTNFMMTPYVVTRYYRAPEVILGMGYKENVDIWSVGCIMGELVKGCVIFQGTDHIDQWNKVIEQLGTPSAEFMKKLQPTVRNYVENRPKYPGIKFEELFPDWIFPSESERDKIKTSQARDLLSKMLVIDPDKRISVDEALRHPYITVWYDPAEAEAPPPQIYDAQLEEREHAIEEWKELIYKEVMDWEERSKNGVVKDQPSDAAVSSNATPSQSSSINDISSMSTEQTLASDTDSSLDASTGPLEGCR
Sequence of JNK-3 (P53779 whole entry, species assumed): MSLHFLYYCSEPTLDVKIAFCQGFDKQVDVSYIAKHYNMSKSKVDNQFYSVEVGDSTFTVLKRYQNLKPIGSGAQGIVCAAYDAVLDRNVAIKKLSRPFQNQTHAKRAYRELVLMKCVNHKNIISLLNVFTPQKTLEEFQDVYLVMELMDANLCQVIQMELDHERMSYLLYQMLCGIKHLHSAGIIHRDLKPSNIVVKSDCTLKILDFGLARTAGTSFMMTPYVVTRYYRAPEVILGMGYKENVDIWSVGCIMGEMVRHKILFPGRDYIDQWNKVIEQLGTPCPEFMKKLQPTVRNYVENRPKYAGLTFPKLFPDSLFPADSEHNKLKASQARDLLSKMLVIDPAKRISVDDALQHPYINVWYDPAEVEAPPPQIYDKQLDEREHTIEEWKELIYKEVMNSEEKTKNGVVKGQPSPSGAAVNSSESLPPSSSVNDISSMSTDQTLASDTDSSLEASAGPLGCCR
Sequence of JNK-1 (P45983 whole entry, species assumed): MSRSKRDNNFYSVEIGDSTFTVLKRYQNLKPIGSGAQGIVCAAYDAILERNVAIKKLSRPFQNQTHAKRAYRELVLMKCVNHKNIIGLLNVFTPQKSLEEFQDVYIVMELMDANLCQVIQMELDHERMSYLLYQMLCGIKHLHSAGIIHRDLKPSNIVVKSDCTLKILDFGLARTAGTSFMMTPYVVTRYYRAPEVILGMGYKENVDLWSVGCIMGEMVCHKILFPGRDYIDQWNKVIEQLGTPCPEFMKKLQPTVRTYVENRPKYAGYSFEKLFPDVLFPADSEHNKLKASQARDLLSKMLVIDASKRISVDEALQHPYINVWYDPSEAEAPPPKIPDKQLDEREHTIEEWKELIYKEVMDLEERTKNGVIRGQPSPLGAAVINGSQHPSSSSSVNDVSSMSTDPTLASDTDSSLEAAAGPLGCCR

Row | Compound | Time at which maximum plasma concentration is reached after administration ([1]; 200 mg/kg single oral dose by gavage, mice) | concentration at 0 hr [1, 4] [ng/g] | concentration at 1 hr [1, 4] [ng/g] | concentration at 2 hr [1, 4] [ng/g] | concentration at 0 hr [1, 5] [ng/mL] | concentration at 1 hr [1, 5] [ng/mL] | concentration at 2 hr [1, 5] [ng/mL] | Retention in the brain ([1]; relative to 11-011, after oral gavage in mice) | Glucose Starvation (PC12 cells) | LTP [2] | Induction of LTP ([2]; after a weak tetanic stimulation (15 pulses at 100 Hz), fEPSP slope) | Basal synaptic transmission ([2]; fEPSP slope, J147 1 μM) | Deficit in memory of AD mice relative to wild type (escape latency) [3] | Amyloid Dissociation (Amyloid) | Animal Models, Rabbit stroke (Rabbit stroke) | Inhibition of kinase (JNK-3) | Inhibition of kinase (JNK-1) | Inhibition of kinase (JNK-2) | Block of p38 phosphorylation caused by glutamate (p38) | Block of JNK phosphorylation caused by glutamate (JNK)
1 | COc1cccc(/C=N/N(C(=O)C(F)(F)F)c2ccc(C)cc2C)c1 [Compound J147] | about 1 hr | 0 | 3900 | 2800 | 0 | 5600 | 300 | improved ability to be retained in the brain | + | + | facilitate the induction of LTP | does not affect basal synaptic transmission | corrected | – | – | – | – | – | – | –
2 | COc1cc(/C=C/c2cc(/C=C/c3ccc(O)c(OC)c3)n(-c3ccccc3)n2)ccc1O [CNB-001] | – | – | – | – | – | – | – | – | + | + | – | – | – | + | + | partially inhibited | None of the other enzymes that were assayed, including JNK-1 or JNK-2, were affected | None of the other enzymes that were assayed, including JNK-1 or JNK-2, were affected | about 30% | about 30%
